# Measured values reported in patent US9376418B2, “Substituted pyridine spleen tyrosine kinase (SYK) inhibitors” (Merck Sharp & Dohme Corp., priority 2012, dated 2016).
# Molecular target: T1, recombinant human GST-SYK (Homo sapiens, UniProt P43405)
# T1 construct: purchased Carna Biosciences 08-176
# Assay: Homogeneous Time-Resolved Fluorescence (HTRF) assay for the recombinant human Syk enzyme
# Type: biochemical
# Details: HTRF assay, recombinant human GST-SYK; IC50 given as class symbols; read-out: rhSYK Activity
# In short: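 HTRF read-out: Europium-anti-phosphotyrosine antibody (2 nM) plus SA-APC (70 nM) in EDTA-containing buffer quenched the reaction, and signal was read after 30 minutes. Kinase step used […], 250 nM biotinylated peptide, 25 μM ATP, 5 mM Mg, 45′ at room temperature.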
row,SMILES,IC50 [nM]
1,"C=C(F)CNC(=O)c1ccc(-c2cc(C)cc(Nc3nccc(C(F)(F)F)n3)c2)cn1 [Example 16.28, N-(2-fluoroprop-2-en-1-yl)-5-(3-methyl-5-{[4-(trifluoromethyl)pyrimidin-2-yl]amino}phenyl)pyridine-2-carboxamide]",100 to 1000
2,"Cc1cc(Nc2nccc(C(F)(F)F)n2)cc(-c2ccc(NC3CNC(=O)C3)nc2)c1 (stereo not shown) [Example 7.128, 4-{[5-(3-methyl-5-{[4-(trifluoromethyl)pyrimidin-2-yl]amino}phenyl)pyridin-2-yl]amino}pyrrolidin-2-one]",< 100
3,"CCNC(=O)Nc1cc(Nc2nccc(C(F)(F)F)n2)cc(-c2ccc(C(=O)O)nc2)c1 [Example 6.6, 5-(3-[(ethylcarbamoyl)amino]-5-{[4-(trifluoromethyl)pyrimidin-2-yl]amino}phenyl)pyridine-2-carboxylic acid]",< 100
4,"CNS(=O)(=O)CCNC(=O)c1ccc(-c2cc(C)cc(Nc3nccc(C(F)(F)F)n3)c2)cn1 [Example 16.57, N-[2-(methylsulfamoyl)ethyl]-5-(3-methyl-5-{[4-(trifluoromethyl)pyrimidin-2-yl]amino}phenyl)pyridine-2-carboxamide]",< 100
5,"Cc1cc(Nc2nccc(C(F)(F)F)n2)cc(-c2ccnc(N3CCN(C)C(=O)C3)c2)c1 [Example 15.47, 1-methyl-4-[4-(3-methyl-5-{[4-(trifluoromethyl)pyrimidin-2-yl]amino}phenyl)pyridin-2-yl]piperazin-2-one]",< 100
6,"Cc1cc(Nc2nccc(C(F)(F)F)n2)cc(-c2ccc(N3CCCC4(CCCO4)C3)nc2)c1 (stereo not shown) [Example 7.11, N-{3-methyl-5-[6-(1-oxa-7-azaspiro[4.5]dec-7-yl)pyridin-3-yl]phenyl}-4-(trifluoromethyl)pyrimidin-2-amine]",100 to 1000
7,"Cc1cc(Nc2nccc(C(F)(F)F)n2)cc(-c2ccc(NCCC(N)=O)nc2)c1 [Example 7.43, N~3~-[5-(3-methyl-5-{[4-(trifluoromethyl)pyrimidin-2-yl]amino}phenyl)pyridin-2-yl]-beta-alaninamide]",< 100
8,"Cc1cc(Nc2nccc(C)n2)cc(-c2cncc(C(O)(CO)CO)c2)c1 [Example 9.75, 2-(5-{3-methyl-5-[(4-methylpyrimidin-2-yl)amino]phenyl}pyridin-3-yl)propane-1,2,3-triol]",100 to 1000
9,"Cc1cc(Nc2nccc(C(F)(F)F)n2)cc(-c2ccc(N[C@@H]3CCC(=O)NC3)nc2)c1 [Example 7.51, (5R)-5-{[5-(3-methyl-5-{[4-(trifluoromethyl)pyrimidin-2-yl]amino}phenyl)pyridin-2-yl]amino}piperidin-2-one]",< 100
10,"Cc1cc(Nc2nccc(C(F)(F)F)n2)cc(-c2ccc(NCC(=O)N(C)C)nc2)c1 [Example 7.66, N,N-dimethyl-N~2~-[5-(3-methyl-5-{[4-(trifluoromethyl)pyrimidin-2-yl]amino}phenyl)pyridin-2-yl]glycinamide]",< 100
11,"COc1ccnc(Nc2cc(C)cc(-c3ccc(C(C)(O)[C@H]4CC[C@H](C(=O)O)CC4)nc3)c2)n1 (stereo partly drawn) [Example 9.25, trans-4-[1-hydroxy-1-(5-{3-[(4-methoxypyrimidin-2-yl)amino]-5-methylphenyl}pyridin-2-yl)ethyl]cyclohexanecarboxylic acid]",< 100
12,"Cc1cc(Nc2nccc(C(F)(F)F)n2)cc(-c2ccc(N3CCN(C)C(=O)C3)nc2)c1 [Example 7.33, 1-methyl-4-[5-(3-methyl-5-{[4-(trifluoromethyl)pyrimidin-2-yl]amino}phenyl)pyridin-2-yl]piperazin-2-one]",100 to 1000
13,"CCCCOC(=O)C1CCC(C(C)(O)c2ccc(-c3cc(C)cc(Nc4nccc(OC)n4)c3)cn2)CC1 (single isomer, unassigned) [Example 9.50, butyl trans-4-[(1R or 1S)-1-hydroxy-1-(5-{3-[(4-methoxypyrimidin-2-yl)amino]-5-methylphenyl}pyridin-2-yl)ethyl]cyclohexanecarboxylate]",100 to 1000
14,"Cc1cc(Nc2nccc(C(F)(F)F)n2)cc(-c2ccc(N3CCC(C(=O)O)CC3)nc2)c1 [Example 7.136, 1-[5-(3-methyl-5-{[4-(trifluoromethyl)pyrimidin-2-yl]amino}phenyl)pyridin-2-yl]piperidine-4-carboxylic acid]",< 100
15,"CCOC(=O)/C=C/c1ccc(-c2cc(C)cc(Nc3nccc(C(F)(F)F)n3)c2)cn1 [Example 22.1, Ethyl-3-[5-(3-methyl-5-{[4-(trifluoromethyl)pyrimidin-2-yl]amino}phenyl)pyridin-2-yl]prop-2-enoate]",100 to 1000
16,"Cc1cc(Nc2ncc(F)c(C3CC3)n2)cc(-c2ccc(NC(C)(C)C(=O)O)nc2)c1 [Example 7.159, N-(5-{3-[(4-cyclopropyl-5-fluoropyrimidin-2-yl)amino]-5-methylphenyl}pyridin-2-yl)-2-methylalanine]",< 100
17,"COc1cc(-c2cccc(Nc3nccc(C(F)(F)F)n3)c2)ccn1 [Example 2.122, N-[3-(2-methoxypyridin-4-yl)phenyl]-4-(trifluoromethyl)pyrimidin-2-amine]",100 to 1000
18,"Cc1cc(Nc2nccc(C(F)(F)F)n2)cc(-c2ccc(N3CCN(C)CC3)nc2)c1 [Example 7.46, N-{3-methyl-5-[6-(4-methylpiperazin-1-yl)pyridin-3-yl]phenyl}-4-(trifluoromethyl)pyrimidin-2-amine]",< 100
19,"Cc1cc(Nc2nccc(C(F)(F)F)n2)cc(-c2ccc(C3(O)CCC(=O)CC3)nc2)c1 [Example 9.54, 4-hydroxy-4-[5-(3-methyl-5-{[4-(trifluoromethyl)pyrimidin-2-yl]amino}phenyl)pyridin-2-yl]cyclohexanone]",< 100
20,"Cc1cc(Nc2nccc(C(F)(F)F)n2)cc(-c2ccc(N[C@H](CC(N)=O)C(=O)O)nc2)c1 [Example 7.93, N~2~-[5-(3-methyl-5-{[4-(trifluoromethyl)pyrimidin-2-yl]amino}phenyl)pyridin-2-yl]-D-asparagine]",< 100
21,"CC(=O)c1ccc(-c2cc(C)cc(Nc3nccc(C(F)(F)F)n3)c2)cn1 [Example 2.113, 1-[5-(3-methyl-5-{[4-(trifluoromethyl)pyrimidin-2-yl]amino}phenyl)pyridin-2-yl]ethanone]",100 to 1000
22,"Cc1cc(Nc2nccc(C(F)(F)F)n2)cc(-c2ccc(O)nc2)c1 [Example 4.8, 5-(3-methyl-5-{[4-(trifluoromethyl)pyrimidin-2-yl]amino}phenyl)pyridin-2-ol]",100 to 1000
23,"Cc1cc(Nc2nccc(C(F)(F)F)n2)cc(-c2ccc(C(=O)NS(C)(=O)=O)nc2)c1 [Example 16.1, N-(methylsulfonyl)-5-(3-methyl-5-{[4-(trifluoromethyl)pyrimidin-2-yl]amino}phenyl)pyridine-2-carboxamide]",< 100
24,"CCC(CO)NC(=O)c1ccc(-c2cc(C)cc(Nc3nccc(C(F)(F)F)n3)c2)cn1 (stereo not shown) [Example 16.9, N-[1-(hydroxymethyl)propyl]-5-(3-methyl-5-{[4-(trifluoromethyl)pyrimidin-2-yl]amino}phenyl)pyridine-2-carboxamide]",100 to 1000
25,"Cc1cc(Nc2nccc(C(F)(F)F)n2)cc(-c2ccc(CC(=O)O)nc2)c1 [Example 3.1, 2-(5-(3-methyl-5-((4-(trifluoromethyl)pyrimidin-2-yl)amino)phenyl)pyridin-2-yl)acetic acid]",< 100
